Drawing on patent US10576059B2, “Substituted phenylpyrrolecarboxamides with therapeutic activity in HIV” (New York Blood Center, Inc., priority 2014, dated 2020), this text covers IC50 and CC50 for 50 molecules.

Structures are written as SMILES.

For the first data set, the system named is panel of HIV-1 ENV-pseudoviruses (subtype A, A/D, A2/D, A/E, A/G, B, C and D). In words: microbe, parasite or virus in culture. In kind it is cell-based. The settings on record: Human immunodeficiency virus 1, TZM-bl, read-out: IC50 (μM) ± S.D., subtype B, ENV B41.
As usually defined, the IC50 is the concentration at which inhibition is half-maximal. With `Cc1nc(C(CN)NC(=O)c2ccc(-c3ccc(Cl)cc3)[nH]2)sc1CO` (single isomer, unassigned) [Compound 40], the IC50 came to 0.28 ± 0.03 µM.

Staying with this data set, now noted: Human immunodeficiency virus 1, TZM-bl, read-out: IC50 (μM) ± S.D., subtype B, NIH # 11024, ENV AC10.0, clone 29.
`Cc1nc(C(CN)NC(=O)c2ccc(-c3ccc(Cl)cc3)[nH]2)sc1CO` (single isomer, unassigned) [Compound 40]: the IC50 came out at 0.29 ± 0.03 µM.

Staying with this data set, now noted: Human immunodeficiency virus 1, TZM-bl, read-out: IC50 (μM) ± S.D., subtype B, NIH # 11578, ENV pWEAUd15.410.5017.
In the case of `Cc1nc(C(CN)NC(=O)c2ccc(-c3ccc(Cl)cc3)[nH]2)sc1CO` (single isomer, unassigned) [Compound 40], the IC50 worked out at 0.28 ± 0.04 µM.

The data set is the same for the next values; noted with them: subtype A, ENV BG505-T332N; read-out: IC50 (μM) ± S.D.
Turning to `Cc1nc(C(CN)NC(=O)c2ccc(-c3ccc(Cl)cc3)[nH]2)sc1CO` (single isomer, unassigned) [Compound 40], the IC50 was 0.33 ± 0.04 µM.

Another data set concerns TZM-bl cells. In words: Cytotoxicity in TZM-bl cells (XTT). In kind it is cell-based. Particulars: 3 days. How it is done: (§1) The cytotoxicity of test compounds in TZM-bl cells was also measured by the XTT method described previously^7. […] The soluble intracellular formazan was quantitated colorimetrically at 450 nm 4 h later. The percent of cytotoxicity and the CC50 values were calculated as above. (See Table 4)
Broadly, the CC50 is the concentration that lowers cell viability or growth by half. Low values mean harm at low concentration, high ones better tolerance by the cells. On to `Cc1nc(C(CN)NC(=O)c2cc3ccccc3[nH]2)sc1CO` (stereo not drawn) [Compound 63], for which the CC50 is greater than 60 µM. Still for that read-out and setting: the figure for `Cc1nc(C(CN)NC(=O)c2cc3cc(Cl)ccc3[nH]2)sc1CO` (stereo not drawn) [Compound 61] is greater than 55 µM.

System in the next data set: not listed separately
In words: Cytotoxicity in TZM-bl cells (XTT). The class given is cell-based. Particulars: human. How it is done:
as §1
(Tetrazolium assays rely on reduction of a dye to a coloured formazan, in cell work by metabolically active cells.)
Take `Cc1nc(C(CN)NC(=O)c2cc3cc(Cl)ccc3[nH]2)sc1CO` (stereo not drawn) [Compound 60]: the cytotoxic concentration (CC50) at 3 days is roughly 47 µM.

Molecule `Cc1nc(C(CN)NC(=O)c2cc3ccccc3[nH]2)sc1CO` (stereo not drawn) [Compound 62] displayed a CC50 at 3 days greater than 60 µM.

Another data set has as its system PBMC. In words: Cytotoxicity in PBMC (XTT). In kind it is cell-based. The settings on record: 7 days. On the procedure: For the PBMC toxicity assay we used 5×10^5 cells/ml and the cytotoxicity of the compounds was measured after 7 days of incubation as previously reported^8. Following the addition of XTT the soluble intracellular formazan was quantitated colorimetrically at 450 nm 4 h later. The percent of cytotoxicity and the CC50 values were calculated as above. (See Table 4)
For `Cc1nc(C(NC(=O)C(=O)Nc2ccc(Cl)cc2)C2CCCCN2)sc1CO` (stereo not drawn) [NBD-09027], the CC50 was greater than 160 µM.

The next data set deals with HIV-1 pseudovirus pseudotyped with HXB2 Env. In words: microbe, parasite or virus in culture. In kind it is cell-based. The settings on record: Human immunodeficiency virus 1, HXB2, TZM-bl, TZM-bl cells, HIV-1 pseudovirus with HXB2 Env.
Take `Cc1nc(C(CCN(C)C)NC(=O)c2ccc(-c3ccc(Cl)cc3)[nH]2)sc1CO` (stereo not drawn) [Compound 80]: the midpoint of inhibition, the IC50, lay at 14.2 ± 0.7 µM. Still for that read-out and setting: the figure for `Cc1nc(C(CNC(=N)N)NC(=O)c2ccc(-c3ccc(Cl)c(F)c3)[nH]2)sc1CO` (single isomer, unassigned) [Compound 48] is greater than 27 µM. Take `Cc1nc(C(NC(=O)c2ccc(-c3ccc(Cl)cc3)[nH]2)C2CCCCN2)[nH]c1CO` (single isomer, unassigned) [Compound 33]: the half-maximal inhibitory concentration (IC50) came out at 14 ± 0.1 µM. The same measure, in the same setting: to `NCC(NC(=O)c1ccc(-c2ccc(Cl)c(F)c2)[nH]1)c1ncc(CO)s1` (stereo not drawn) [Compound 94] belongs 1.1 ± 0.8 µM.

With `Cc1nc(C(CN)NC(=O)c2cc3cc(Cl)ccc3[nH]2)sc1CO` (stereo not drawn) [Compound 60], the IC50 is greater than 40 µM.

As to `O=C(NC(c1ccccc1)c1ccc[nH]1)c1ccc(-c2ccc(Cl)cc2)[nH]1` (stereo not drawn) [Compound 1], the IC50 was 16.4 ± 1.5 µM. Molecule `Cc1nc(C(NC(=O)c2ccc(-c3ccc(Cl)cc3)[nH]2)C2CCCCN2)sc1CCCO` (stereo not drawn) [Compound 32] came in with an IC50 of 7.6 ± 0.8 µM.

As for `CC(=O)NCC(NC(=O)c1ccc(-c2ccc(Cl)c(F)c2)[nH]1)c1nc(C)c(CO)s1` (stereo not drawn) [Compound 64], the IC50 is roughly 40 µM. Still for that read-out and setting: the figure for `CC(=O)NCC(NC(=O)c1ccc(-c2ccc(Cl)c(F)c2)[nH]1)c1nc(C)c(COC(C)=O)s1` (stereo not drawn) [Compound 70] is greater than 40 µM; for `Cc1nc(C(CN)NC(=O)c2cc3ccccc3[nH]2)sc1CO` (stereo not drawn) [Compound 62] it is greater than 60 µM; for `N=C(N)NCCCC(NC(=O)c1ccc(-c2ccc(Cl)cc2)[nH]1)C(=O)NCCO` (stereo not drawn) [Compound 4] it is greater than 44 µM. The same measure, in the same setting: the figure for `Cc1cc(C(=O)NC(CN)c2nc(C)c(CO)s2)[nH]c1-c1ccc(Cl)cc1` (stereo not drawn) [Compound 101] is 3.6 ± 0.4 µM; for `Cc1ccc(-c2ccc(C(=O)NC(CN)c3nc(C)c(CO)s3)[nH]2)cc1F` (single isomer, unassigned) [Compound 43] it is 1.7 ± 0.4 µM; for `CS(=O)(=O)NCCNC(=O)C(CCCNC(=N)N)NC(=O)c1ccc(-c2ccccc2)[nH]1` (stereo not drawn) [Compound 7] it is greater than 43 µM. `Cc1nc(C(NC(=O)c2ccc(-c3ccc(Cl)c(F)c3)[nH]2)C2CCCCN2)[nH]c1CO` (single isomer, unassigned) [Compound 35] returned an IC50 of 9 ± 0.2 µM. The same measure, in the same setting: the figure for `CNc1cc(NC(=O)c2ccc(-c3ccc(F)c(Cl)c3)[nH]2)nc(NC(=N)N)n1` [Compound 53] is greater than 36 µM; for `Cc1ccc(-c2ccc(C(=O)NC(c3nc(C)c(CCO)s3)C3CCCCN3)[nH]2)cc1F` (single isomer, unassigned) [Compound 24] it is 10.6 ± 0.1 µM. `Cc1nc(C(NC(=O)c2ccc(-c3ccc(Cl)c(F)c3)[nH]2)C2CCCCN2)sc1CO` (single isomer, unassigned) [Compound 20]: the IC50 was 3 ± 0.4 µM. Same read-out and setting: to `Cc1nc(C(CCN)NC(=O)c2ccc(-c3ccc(Cl)c(F)c3)[nH]2)sc1CO` (stereo not drawn) [Compound 90] belongs 4.1 ± 1.5 µM; to `N=C(N)Nc1ccc(CC(NC(=O)c2ccc(-c3ccc(Cl)cc3)[nH]2)C(=O)N2CCOCC2)cc1` (stereo not drawn) [Compound 3], greater than 36 µM; to `N=C(N)NCCCC(NC(=O)c1ccc(-c2ccccc2)[nH]1)C(=O)NN1CCOCC1` (stereo not drawn) [Compound 10], greater than 43 µM. As for `Nc1nc(CNC(=O)c2ccc(-c3ccc(Cl)cc3)[nH]2)n[nH]1` [Compound 2], the IC50 is greater than 63 µM.

With `Cc1nc(C(NC(=O)c2ccc(-c3ccc(Cl)cc3)[nH]2)C2CCCCN2)sc1CCO` (single isomer, unassigned) [Compound 28], the IC50 turned out to be 8.9 ± 0.2 µM. `Cc1cc(-c2ccc(Cl)cc2)[nH]c1C(=O)NC(CN)c1nc(C)c(CO)s1` (stereo not drawn) [Compound 73] registered an IC50 of 2.2 ± 0.8 µM. The molecule `Cc1nc(C(CN)NC(=O)c2ncc(-c3ccc(Cl)cc3)[nH]2)sc1CO` (stereo not drawn) [Compound 99] came in with an IC50 of 34.9 ± 3 µM. On to `Cc1nc(C(NC(=O)c2ccc(-c3ccc(Cl)c(F)c3)[nH]2)C2CCCCN2)sc1CCCO` (single isomer, unassigned) [Compound 31], for which inhibition was half-maximal at 5.1 ± 0.7 µM (IC50).

In turn, `Cc1ccc(-c2ccc(C(=O)NC(c3nc(C)c(CO)s3)C3CCCCN3)[nH]2)cc1F` (single isomer, unassigned) [Compound 22] had an IC50 of 2.7 ± 0.2 µM. On the same count and under the same terms, the figure for `Cc1nc(C(CN)NC(=O)c2cnc(-c3ccc(Cl)cc3)[nH]2)sc1CO` (stereo not drawn) [Compound 97] is greater than 51 µM; for `Cc1n[nH]c(C)c1CNC(=O)c1ccc(-c2ccc(Cl)cc2)[nH]1` [Compound 11] it is roughly 60 µM; for `Cc1nc(C(CN(C)C)NC(=O)c2ccc(-c3ccc(Cl)cc3)[nH]2)sc1CO` (stereo not drawn) [Compound 66] it is 16.5 ± 3.4 µM. `NS(=O)(=O)c1ccc(CCNC(=O)c2ccc(-c3ccc(Cl)cc3)[nH]2)cc1` [Compound 14] showed an IC50 greater than 50 µM. Turning to `Cc1nccn1Cc1ccc(CNC(=O)c2ccc(-c3ccc(Cl)cc3)[nH]2)o1` [Compound 12], the IC50 turned out to be 14.1 ± 1.3 µM. Still for that read-out and setting: the figure for `N=C(N)NCCCC(NC(=O)c1ccc(-c2ccccc2)[nH]1)C(=O)NCCO` (stereo not drawn) [Compound 5] is greater than 47 µM; for `CS(=O)(=O)NCCNC(=O)C(CCCNC(=N)N)NC(=O)c1ccc(-c2ccc(Cl)cc2)[nH]1` (stereo not drawn) [Compound 6] it is greater than 37 µM. Still for that read-out and setting: the figure for `CCN(CC)Cc1ccc(OC)c(CNC(=O)c2ccc(-c3ccc(Cl)cc3)[nH]2)c1` [Compound 13] is 4.3 ± 0.1 µM. Still for that read-out and setting: the figure for `CN1CCN(NC(=O)C(CCCNC(=N)N)NC(=O)c2ccc(-c3ccc(Cl)cc3)[nH]2)CC1` (stereo not drawn) [Compound 8] is greater than 42 µM. In the case of `Cc1ccc(-c2ccc(C(=O)NC(c3nc(C)c(CCCO)s3)C3CCCCN3)[nH]2)cc1F` (single isomer, unassigned) [Compound 30], half-maximal inhibition (IC50) required 11.2 ± 0.7 µM.

`Cc1ccc(-c2ccc(C(=O)NC(CCN(C)C)c3nc(C)c(CO)s3)[nH]2)cc1F` (stereo not drawn) [Compound 76] showed an IC50 of 11 ± 2.5 µM. Same read-out and setting: to `Cc1nc(C(CNC(=N)N)NC(=O)c2ccc(-c3ccc(Cl)cc3)[nH]2)sc1CO` (single isomer, unassigned) [Compound 45] belongs greater than 37 µM; to `Cc1ccc(-c2ccc(C(=O)NC(CNC(=N)N)c3nc(C)c(CO)s3)[nH]2)cc1F` (single isomer, unassigned) [Compound 49], greater than 28 µM; to `Cc1nc(C(CN)NC(=O)c2ccc(-c3ccc(Cl)c(F)c3)[nH]2)sc1CO` (single isomer, unassigned) [Compound 51], 1.4 ± 0.5 µM. Still for that read-out and setting: to `Cc1nc(C(CN(C)C)NC(=O)c2ccc(-c3ccc(Cl)c(F)c3)[nH]2)sc1CO` (stereo not drawn) [Compound 71] belongs 3.6 ± 1 µM. On the same count and under the same terms, the figure for `N=C(N)NCCCC(NC(=O)c1ccc(-c2ccc(Cl)cc2)[nH]1)C(=O)NN1CCOCC1` (stereo not drawn) [Compound 9] is greater than 40 µM; for `Cc1nc(C(NC(=O)c2ccc(-c3ccc(Cl)c(F)c3)[nH]2)C2CCCCN2)sc1CCO` (single isomer, unassigned) [Compound 26] it is 7.5 ± 0.2 µM.

The same data set, now with this note: TZM-bl cells, HIV-1 pseudovirus with HXB2 Env.
`Cc1nc(C(CN)NC(=O)c2cc3ccccc3[nH]2)sc1CO` (stereo not drawn) [Compound 63] displayed an IC50 greater than 60 µM.

`CC(=O)NCC(NC(=O)c1ccc(-c2ccc(Cl)c(F)c2)[nH]1)c1nc(C)c(CO)s1` (stereo not drawn) [Compound 65] showed a concentration for half-maximal inhibition (IC50) of roughly 40 µM. On the same count and under the same terms, to `Cc1nc(C(CN)NC(=O)c2cc3cc(Cl)ccc3[nH]2)sc1CO` (stereo not drawn) [Compound 61] belongs roughly 50 µM. Same read-out and setting: the figure for `Cc1nc(C(CN)NC(=O)c2cnc(-c3ccc(Cl)cc3)[nH]2)sc1CO` (stereo not drawn) [Compound 98] is greater than 51 µM.
